Assay results as given in PMC8465942, “Cyano- and Ketone-Containing Selenoesters as Multi-Target Compounds against Resistant Cancers” (Cancers, 2021).
“Also recorded” adds a separate entry of the source. Marks after values point to notes of the source that are not given here.

Columns and labels:
HaCaT cell line = assay: Toxicity on HaCaT cells (IC10 used as dose); type: cell-based; settings: Homo sapiens, concentration inhibiting 10% of the population, highest non-toxic concentration, read-out: Dose IC10
Protocol: The activity of selenoesters was tested on several cancer cell lines, including HepG2 (hepatocellular carcinoma, CCL-23TM, ATCC); HeLa (cervical adenocarcinoma, CCL-2TM, ATCC); B16 (skin melanoma, CCL-6322TM, ATCC); and a non-cancerous cell line, HDF (human dermal fibroblasts, Sigma-Aldrich). HepG2, HeLa, B16, and HDF cell lines were cultivated in EMEM medium supplemented with 10% FBS, 2 mM L-glutamine, and 1% penicillin-streptomycin mixture. The HaCaT cell line was cultivated in DMEM medium supplemented with 10% FBS and 1% penicillin-streptomycin mixture. All of the cells were cultivated in a CO2 incubator (5% CO2, 37 °C). Twice per week, the cell lines were passaged according to a standardized protocol with a trypsin-EDTA solution. […]
Wound healing activity of selenoesters was evaluated as the ability of the cells to migrate and close the gap created on the monolayer of human keratinocytes (HaCaT cell line). The tested substances were applied in the highest possible non-toxic concentration (IC10, concentration inhibiting 10% of the population). In general, ketone-selenoesters were more toxic (except K4 and K1) than cyano-selenoesters (except N4); therefore, they were applied at lower doses (0.17–0.30 µM) when compared to cyanoselenoesters (0.36–0.64 µM). Compounds K1, K4, and N4 were applied at a concentration of 0.30, 0.46, and 0.20 µM, respectively. As could be seen in Table 8, all ketone-selenoesters stimulated wound healing more effectively in comparison to both untreated control (p < 0.0000005) and allantoin (p < 0.00005). […] Only samples N1, N2, N4, and N7 closed effectively the damaged wound in 24 h, with the gap closure around 70%.

[1] = Cytotoxicity (MTT) on normal MRC-5 fibroblasts; type: cell-based; settings: human
Description: (§1) Three cell lines have been used in this study: the doxorubicin-sensitive Colo 205 (CCL-222, ATCC, Manassas, VA, USA) human colonic adenocarcinoma cell line; the multidrug resistant Colo 320/MDR-LRP expressing P-gp (MDR1)-LRP (CCL-220.1, ATCC) human colonic adenocarcinoma cell line; and the MRC-5 human embryonal lung fibroblast cell line (CCL-171, ATCC). The colon adenocarcinoma cell lines were purchased from LGC Promochem (Teddington, UK), and the MRC-5 cell line was purchased from Sigma-Aldrich (Merck KGaA, Darmstadt, Germany). Their culture conditions are as follows: Colo 205 (CCL-222, ATCC) and Colo 320/MDR-LRP expressing P-gp (MDR1)-LRP (CCL-220.1, ATCC) human colon adenocarcinoma cell lines were cultured in RPMI 1640 medium, supplemented with 10% FBS, 2 mM L-glutamine, 1 mM Na-pyruvate, and […]. The cell lines were incubated at 37 °C, 5% CO2, and 95% air atmosphere. The semi-adherent human colon cancer cells were detached with a Trypsin-Versene (EDTA) solution for 5 min at 37 °C. MRC-5 human embryonal lung fibroblast cells were cultured in EMEM containing 4.5 g/L of glucose and supplemented with a non-essential amino acid mixture, a selection of vitamins, and 10% FBS. The cell lines were incubated at 37 °C, 5% CO2, and 95% air atmosphere.
(§2) The effects of increasing concentrations of the compounds on cell growth were tested in 96-well flat-bottomed microtiter plates. Moreover, 10^4 of human colonic adenocarcinoma cells in 100 μL of the medium (RPMI-1640) were added to each well, except for the medium control wells. The adherent human embryonic lung fibroblast cell line was seeded in the EMEM medium for 4 h before the assay. The two-fold serial dilutions of the compounds were made in a separate plate (0.19–100 μM), and then transferred to the plates containing the adherent corresponding cell line. Culture plates were incubated at 37 °C for 24 h. At the end of the incubation period, 20 μL of MTT (thiazolyl blue tetrazolium bromide) solution (from a 5 mg/mL stock solution) were added to each well. After incubation at 37 °C for 4 h, 100 μL of sodium dodecyl sulfate (SDS) solution (10% SDS in 0.01 M HCl) was added to each well, and the plates were further incubated at 37 °C overnight. Cell growth was determined by measuring the optical density (OD) at 540 nm (ref. 630 nm) with a Multiscan EX ELISA reader (Thermo Labsystems, Cheshire, WA, USA). Inhibition of cell growth was expressed as IC50 values, defined as the inhibitory dose that reduces the growth of the cells exposed to the tested compounds by 50%. IC50 values and the SD of triplicate experiments were calculated by using GraphPad Prism software version 5.00 for Windows, with a non-linear regression curve fit (GraphPad Software, San Diego, CA, USA; www.graphpad.com, accessed on 12 July 2021). Doxorubicin (from a 2 mg/mL stock solution, Teva Pharmaceuticals) was used as a positive control.

[2] = tested on: resistant Colo 320 colon adenocarcinoma cells expressing the ABCB1 transporter; assay: Checkerboard combination assay with doxorubicin; type: cell-based, human
Protocol: A checkerboard microplate method was applied to study the effect of drug interactions between the selenocompounds and the chemotherapeutic drug doxorubicin on resistant Colo 320 colon adenocarcinoma cells expressing the ABCB1 transporter. Results were expressed in terms of the combination index (CI) values at 50% growth inhibition (ED50), which were determined by using CompuSyn software to plot 4 or 5 data points for each ratio.
To perform the experiment, the dilutions of doxorubicin were made in a horizontal direction in 100 µL, and the dilutions of the Se-compounds were made vertically in the microtiter plate in a volume of 50 µL. The cells were re-suspended in the culture medium and distributed into each well in 50 µL portions containing 6000 cells. The plates were incubated for 72 h at 37 °C in a CO2 incubator. The cell growth rate was determined after MTT staining. At the end of the incubation period, 20 μL of MTT solution was added to each well. After incubation at 37 °C for 4 h, 100 μL of SDS was added to each well and the plates were further incubated at 37 °C overnight. The optical density (OD) was measured at 540/630 nm with the Multiscan EX ELISA reader.

B16 (skin melanoma) = assay: Cytotoxicity on B16 cells; type: cell-based, murine; settings: Mus musculus
Protocol: (§3) The activity of selenoesters was tested on several cancer cell lines, including HepG2 (hepatocellular carcinoma, CCL-23TM, ATCC); HeLa (cervical adenocarcinoma, CCL-2TM, ATCC); B16 (skin melanoma, CCL-6322TM, ATCC); and a non-cancerous cell line, HDF (human dermal fibroblasts, Sigma-Aldrich). HepG2, HeLa, B16, and HDF cell lines were cultivated in EMEM medium supplemented with 10% FBS, 2 mM L-glutamine, and 1% penicillin-streptomycin mixture. The HaCaT cell line was cultivated in DMEM medium supplemented with 10% FBS and 1% penicillin-streptomycin mixture. All of the cells were cultivated in a CO2 incubator (5% CO2, 37 °C). Twice per week, the cell lines were passaged according to a standardized protocol with a trypsin-EDTA solution.
(§4) The selectivity indexes (SI) were calculated as the ratio of the IC50 value in the non-tumour cells and the IC50 in the cancer cell lines. The compound’s activity towards cancer cells is considered as strongly selective if the selectivity index (SI) value is higher than 6, moderately selective if 3 < SI < 6, slightly selective if 1 < SI < 3, and non-selective if SI is lower than 1 [16].

[3] = tested on: Colo 320/MDR-LRP human colonic adenocarcinoma cell line; assay: Cytotoxicity (MTT) on resistant Colo 320 cells; type: cell-based; settings: for IC50: Homo sapiens, COLO 320, 24 h, MTT, read-out: Colo 320 (IC50 µM) Mean; for SI MRC-5/Colo 320: ratio IC50 non-tumour cells / IC50 cancer cells
Description: as §1, §2, §4

[4] = tested on: HeLa (cervical adenocarcinoma); assay: Cytotoxicity on HeLa cells; type: cell-based; settings: Homo sapiens
Protocol: as §3, §4

[5] = tested on: Colo 205 human colonic adenocarcinoma cell line; assay: Cytotoxicity (MTT) on sensitive Colo 205 cells; type: cell-based; settings: for IC50: Homo sapiens, COLO 205, 24 h, MTT, read-out: Colo 205 (IC50 µM) Mean; for SI MRC-5/Colo 205: ratio IC50 non-tumour cells / IC50 cancer cells
Description: as §1, §2, §4

[6] = tested on: HepG2 (hepatocellular carcinoma); assay: Cytotoxicity on HepG2 cells; type: cell-based; settings: Homo sapiens
Protocol: as §3, §4

[7] = tested on: HepG2 (hepatocellular carcinoma); assay: Cytotoxicity on HepG2 cells; type: cell-based, human; settings: ratio IC50 non-tumour cells / IC50 cancer cells
[8] = tested on: human keratinocyte (HaCaT); assay: Wound healing scratch assay; type: cell-based; settings: 50 µg/mL positive control
Protocol: Wound healing activity was realized using human keratinocyte (HaCaT, Thermo Fisher Scientific, Waltham, MA, USA). Wound healing was measured in vitro by scratch assay, as the migration rate of the cells to close the gap was created, as described by Ling et al., with slight modifications. Briefly, HaCaT cells at the concentration of 5×10^5 cells were seeded into 12-well plates and incubated at 37 °C and 5% CO2 until the cells formed a uniform layer. After layer formation, the cells were washed with PBS and then scratched with a sterile micropipette tip. […] The images of the scratch area were captured using an inverted microscope in 4× magnification at different time intervals (0 h, 24 h, 48 h) and evaluated using ImageJ software (National Institutes of Health, Bethesda, MD, USA). All of the experiments were performed in four replicates, and a minimum of five measurements were considered from each image captured. Dean–Dixon’s test was used to remove the outliners in the values measured, and further statistical significances between the groups were established by t-test (Excel, Microsoft Office, Redmond, WA, USA). The wound closure was calculated as the ratio of the gap size at the beginning minus the gap size at the evaluated time.

| SMILES | IC10 (HaCaT cell line) | melting point | IC50 at 24 h [1] | IC50 (B16 (skin melanoma)) | IC50 [3] | SI MRC-5/Colo 320 [3] | IC50 [4] | IC50 [5] | SI MRC-5/Colo 205 [5] | IC50 [6] | SI MRC-5/HepG2 [7] | further results |
| --- | --- | --- | --- | --- | --- | --- | --- | --- | --- | --- | --- | --- |
| N#CC[Se]C(=O)c1cccs1 [N1, Se-(Cyanomethyl) Thiophene-2-carboselenoate] | 400 nM | 50 to 52 °C | > 100000 nM | 1.9 µM | 7.64 µM | >6 * | 2 µM | 2.37 µM | >6 * | 11.3 µM | >6 * | Interaction with doxorubicin ([2]; in at least one of the ratios tested): synergistic manner; also recorded: synergistic effect; Type of Interaction ([2]; ratio 1.7:1, starting conc. 15 µM): Antagonism; Type of Interaction ([2]; ratio 3.4:1, starting conc. 15 µM): Synergism; Type of Interaction ([2]; ratio 6.8:1, starting conc. 15 µM): Synergism; Type of Interaction ([2]; ratio 13.6:1, starting conc. 15 µM): Additive effect; Type of Interaction ([2]; ratio 27.2:1, starting conc. 15 µM): Synergism |
| N#CC[Se]C(=O)c1ccc(F)c(Cl)c1 [N6, Se-(Cyanomethyl) 3-Chloro-4-fluorobenzoselenoate] | 600 nM | 73 to 75 °C | > 100000 nM | 1.7 µM | 5.19 µM | >6 * | 1.3 µM | 2.24 µM | >6 * | 9.6 µM | >6 * | Type of Interaction ([2]; ratio 1.2:1, starting conc. 10 µM): Antagonism; Type of Interaction ([2]; ratio 4.8:1, starting conc. 10 µM): Antagonism; Type of Interaction ([2]; ratio 9.6:1, starting conc. 10 µM): Antagonism; Type of Interaction ([2]; ratio 19.2:1, starting conc. 10 µM): Antagonism; Type of Interaction ([2]; ratio 38.4:1, starting conc. 10 µM): Antagonism |
| NC(=O)NC1NC(=O)NC1=O (centres unmarked) [PC, Allantoin] | – | – | – | – | – | – | – | – | – | – | – | Closure (%) 24 h ([8]; 24 h): 70.37%; Closure (%) 48 h ([8]; 48 h): 84.63% |
